Values quoted from earlier work, collected in patent US20110129510A1, “FIBROUS SURFACE STRUCTURE CONTAINING ACTIVE INGREDIENTS WITH CONTROLLED RELEASE OF ACTIVE INGREDIENTS, USE THEREOF AND METHOD FOR THE PRODUCTION THEREOF” (BASF SE, priority 2008, published 2011).
In brackets after ≈: the same amount, converted by molar mass. Like-named read-outs stand apart in the source and are kept apart here.

Compound	Solubility in water (25° C.) [µg/mL]	also measured
NC(=O)N1c2ccccc2C=Cc2ccccc21 [Carbamazipine]	–	Solubility in water (RT): 945.1 µg/mL (≈ 4000 µM)
Clc1ccccc1C(c1ccccc1)(c1ccccc1)n1ccnc1 [Clotrimazole]	<10	–
CCOC(=O)C1=C(C)NC(C)=C(C(=O)OC)C1c1cccc(Cl)c1Cl (stereo not drawn) [Felodipine]	–	Solubility in water (22° C.): 4.53 µg/mL (≈ 11.8 µM)
COC1=CC(=O)C[C@@H](C)[C@]12Oc1c(Cl)c(OC)cc(OC)c1C2=O [Griseofulvin]	0.03685 (≈ 0.104 µM)	–
COc1ccc2c(c1)c(CC(=O)O)c(C)n2C(=O)c1ccc(Cl)cc1 [Indomethacin]	14 (≈ 39.1 µM)	–
CC(=O)N1CCN(c2ccc(OCC3COC(Cn4ccnc4)(c4ccc(Cl)cc4Cl)O3)cc2)CC1 (stereo not drawn) [Ketoconazole]	–	Solubility in water (37° C.): 80 µg/mL (≈ 151 µM)
